According to US12233081B2, “Hygromycin a compounds and methods of treating spirochete diseases” (priority 2018, dated 2025):
Like-named read-outs stand apart in the source and are kept apart here.

Key:
B. burgdorferi N40 = assay: C3H mice infected with Borrelia burgdorferi, cell counts in skin tissue; assay type: in vivo; details: for # of B. burgdorferi cells in 100 mg skin tissue: 5 days of dosing
Procedure: C3H mice (Charles River Laboratories) are used in classical Lyme disease infection model. Mice were rested for more than 1 day after delivery before infected with 10^5 B. burgdorferi N40 cells by subcutaneous injection. Infection was established for 3 weeks. 100 μl of saline, ceftriaxone or hygromycin A was administered by IP injection. Compounds of the invention can also be tested for efficacy as described herein.
Ceftriaxone (USP grade) was purchased from Sigma-Aldrich. Saline was purchased from Baxter Healthcare. Ceftriaxone powder was dissolved into saline to 31.2 mg/ml solution. Hygromycin A stock solution at 200 mg/ml was diluted into saline to make 50 mg/ml (250 mg/kg), 15 mg/ml (75 mg/kg), 14 mg/ml (70 mg/kg), 10 mg/ml (50 mg/kg) and 5 mg/ml (25 mg/kg) solutions.
In the B. burgdorferi mice infection model, skin is the tissue with highest bacterial burden. After sacrificing mice 2 days after 5 days of dosing, we took 100 mg skin tissue from mouse ear, homogenized the tissue and plated on BSK-II semi-agar plates for cell number counts. No colony appearing on the plates is considered as clearance of the infection.

gut microbiome = details: mouse, in vivo

How did the “# of B. burgdorferi cells in 100 mg skin tissue” value (shortened to “# of B. burgdorferi cells”) (B. burgdorferi N40; 25 mg/kg Oral gavage) turn out when `CC(=O)[C@H]1O[C@@H](Oc2ccc(/C=C(\C)C(=O)N[C@@H]3[C@H](O)[C@@H](O)[C@H]4OCO[C@H]4[C@@H]3O)cc2O)[C@@H](O)[C@@H]1O` [Hygromycin A] was run?
The value was <1.

What about the “# of B. burgdorferi cells” value (B. burgdorferi N40; 50 mg/kg Oral gavage) of the same compound?
The value was <1.

And the “# of B. burgdorferi cells” value (B. burgdorferi N40; 70 mg/kg Oral gavage)?
The value was <1.

What about the “# of B. burgdorferi cells” value (B. burgdorferi N40; 75 mg/kg IP injection) of the same compound?
The value was <1.

And the “# of B. burgdorferi cells” value (B. burgdorferi N40; 250 mg/kg Oral gavage)?
The value was <1.

What about the “clearance of the Borrelia burgdorferi infection” value (B. burgdorferi N40; 5 days of treatment, both IP injection and oral gavage) of the same compound?
Its value is “cleared the Borrelia burgdorferi infection”.

What about the “Camobacteriaceae change in percent relative abundance” value (gut microbiome; C3H, ip, 50 mg/kg, 5 days) of the same compound?
Its value is −0.001%.

What about the “Chitinophagaceae change in percent relative abundance” value (gut microbiome; C3H, ip, 50 mg/kg, 5 days) of the same compound?
The value was 0.000%.

What about the “Christensenellaceae change in percent relative abundance” value (gut microbiome; C3H, ip, 50 mg/kg, 5 days) of the same compound?
Its value is 0.000%.

What about the “Clostridiaceae change in percent relative abundance” value (gut microbiome; C3H, ip, 50 mg/kg, 5 days) of the same compound?
The value was −0.066%.

And the “Clostridiales change in percent relative abundance” value (gut microbiome; C3H, ip, 50 mg/kg, 5 days)?
The value was −0.099%.

And the “Clostridiales family xi. incertae sedis change in percent relative abundance” value (gut microbiome; C3H, ip, 50 mg/kg, 5 days)?
Its value is −0.047%.

What about the “Clostridiales family xiii. incertae sedis change in percent relative abundance” value (gut microbiome; C3H, ip, 50 mg/kg, 5 days) of the same compound?
The value was −0.013%.

What about the “Coriobacteriaceae change in percent relative abundance” value (gut microbiome; C3H, ip, 50 mg/kg, 5 days) of the same compound?
The value was 0.014%.

And the “overall disruption to the gut microbiome” value (gut microbiome)?
The value was “considerably less severe”.

And the “Acholeplasmataceae change in percent relative abundance” value (gut microbiome; ip, 50 mg/kg)?
The value was 0.003%.

And the “Aerococcaceae change in percent relative abundance” value (gut microbiome; ip, 50 mg/kg)?
The value was 0.001%.

And the “Anaerolineaceae change in percent relative abundance” value (gut microbiome; ip, 50 mg/kg)?
Its value is 0.000%.

And the “Anaeroplasmataceae change in percent relative abundance” value (gut microbiome; ip, 50 mg/kg)?
Its value is −0.007%.

And the “Anaplasmataceae change in percent relative abundance” value (gut microbiome; ip, 50 mg/kg)?
The value was 0.000%.

What about the “Aspergillaceae change in percent relative abundance” value (gut microbiome; ip, 50 mg/kg) of the same compound?
The value was 0.000%.

What about the “Asteraceae change in percent relative abundance” value (gut microbiome; ip, 50 mg/kg) of the same compound?
The value was 0.001%.

And the “Bacillaceae change in percent relative abundance” value (gut microbiome; ip, 50 mg/kg)?
Its value is −0.021%.

And the “Bacillales change in percent relative abundance” value (gut microbiome; ip, 50 mg/kg)?
The value was −0.108%.

What about the “Bacteroidaceae change in percent relative abundance” value (gut microbiome; ip, 50 mg/kg) of the same compound?
The value was −14.397%.

And the “Bifidobacteriaceae change in percent relative abundance” value (gut microbiome; ip, 50 mg/kg)?
Its value is 0.000%.

And the “Candidatus saccharibacteria change in percent relative abundance” value (gut microbiome; ip, 50 mg/kg)?
The value was −0.022%.

And the “Corynebacteriaceae change in percent relative abundance” value (gut microbiome; ip, 50 mg/kg)?
The value was 0.000%.

What about the “Cytophagaceae change in percent relative abundance” value (gut microbiome; ip, 50 mg/kg) of the same compound?
Its value is 0.000%.

What about the “Deferribacteraceae change in percent relative abundance” value (gut microbiome; ip, 50 mg/kg) of the same compound?
The value was 0.368%.

And the “Defluviitaleaceae change in percent relative abundance” value (gut microbiome; ip, 50 mg/kg)?
Its value is −0.001%.

What about the “Desulfobacteraceae change in percent relative abundance” value (gut microbiome; ip, 50 mg/kg) of the same compound?
Its value is 0.000%.

And the “Enterobacteriaceae change in percent relative abundance” value (gut microbiome; ip, 50 mg/kg)?
The value was 1.250%.

And the “Enterococcaceae change in percent relative abundance” value (gut microbiome; ip, 50 mg/kg)?
The value was 0.036%.

What about the “Erysipelotrichaceae change in percent relative abundance” value (gut microbiome; ip, 50 mg/kg) of the same compound?
Its value is 5.307%.

What about the “Eubacteriaceae change in percent relative abundance” value (gut microbiome; ip, 50 mg/kg) of the same compound?
Its value is 0.037%.

And the “Fabaceae change in percent relative abundance” value (gut microbiome; ip, 50 mg/kg)?
Its value is 0.000%.

And the “Flavobacteriaceae change in percent relative abundance” value (gut microbiome; ip, 50 mg/kg)?
The value was 0.000%.

And the “Fusobacteriaceae change in percent relative abundance” value (gut microbiome; ip, 50 mg/kg)?
The value was 0.000%.

And the “Gammaproteobacteria change in percent relative abundance” value (gut microbiome; ip, 50 mg/kg)?
The value was −0.020%.

And the “Gloeobacteraceae change in percent relative abundance” value (gut microbiome; ip, 50 mg/kg)?
The value was −0.020%.

And the “Gracilibacteraceae change in percent relative abundance” value (gut microbiome; ip, 50 mg/kg)?
Its value is −0.112%.

What about the “Halomonadaceae change in percent relative abundance” value (gut microbiome; ip, 50 mg/kg) of the same compound?
Its value is 0.000%.

And the “Hylidae change in percent relative abundance” value (gut microbiome; ip, 50 mg/kg)?
Its value is 0.000%.

What about the “Kopriimonadaceae change in percent relative abundance” value (gut microbiome; ip, 50 mg/kg) of the same compound?
The value was 0.000%.

What about the “Lachnospiraceae change in percent relative abundance” value (gut microbiome; ip, 50 mg/kg) of the same compound?
Its value is 1.241%.

What about the “Lactobacillaceae change in percent relative abundance” value (gut microbiome; ip, 50 mg/kg) of the same compound?
The value was 9.667%.

And the “Leuconostocaceae change in percent relative abundance” value (gut microbiome; ip, 50 mg/kg)?
Its value is −0.001%.

What about the “Methylobacteriaceae change in percent relative abundance” value (gut microbiome; ip, 50 mg/kg) of the same compound?
The value was 0.000%.

And the “Microbacteriaceae change in percent relative abundance” value (gut microbiome; ip, 50 mg/kg)?
The value was 0.000%.

And the “Mucoraceae change in percent relative abundance” value (gut microbiome; ip, 50 mg/kg)?
The value was 0.000%.

And the “Nostocaceae change in percent relative abundance” value (gut microbiome; ip, 50 mg/kg)?
The value was 0.000%.

And the “Onagraceae change in percent relative abundance” value (gut microbiome; ip, 50 mg/kg)?
Its value is 0.000%.

What about the “Oscillatoriales change in percent relative abundance” value (gut microbiome; ip, 50 mg/kg) of the same compound?
The value was 0.000%.

What about the “Oscillospiraceae change in percent relative abundance” value (gut microbiome; ip, 50 mg/kg) of the same compound?
The value was −0.009%.

And the “Paenibacillaceae change in percent relative abundance” value (gut microbiome; ip, 50 mg/kg)?
The value was −0.001%.

What about the “Pasteurellaceae change in percent relative abundance” value (gut microbiome; ip, 50 mg/kg) of the same compound?
The value was 0.000%.

What about the “Pelobacteraceae change in percent relative abundance” value (gut microbiome; ip, 50 mg/kg) of the same compound?
Its value is 0.000%.

What about the “Peptococcaceae change in percent relative abundance” value (gut microbiome; ip, 50 mg/kg) of the same compound?
The value was −0.885%.

What about the “Peptoniphilaceae change in percent relative abundance” value (gut microbiome; ip, 50 mg/kg) of the same compound?
The value was 0.000%.

And the “Peptostreptococcaceae change in percent relative abundance” value (gut microbiome; ip, 50 mg/kg)?
Its value is −0.194%.

And the “Physalacriaceae change in percent relative abundance” value (gut microbiome; ip, 50 mg/kg)?
The value was 0.000%.

And the “Poaceae change in percent relative abundance” value (gut microbiome; ip, 50 mg/kg)?
Its value is 0.019%.

And the “Polyangiaceae change in percent relative abundance” value (gut microbiome; ip, 50 mg/kg)?
Its value is 0.000%.

And the “Porphyromonadaceae change in percent relative abundance” value (gut microbiome; ip, 50 mg/kg)?
Its value is −0.221%.

What about the “Prevotellaceae change in percent relative abundance” value (gut microbiome; ip, 50 mg/kg) of the same compound?
Its value is −0.319%.

And the “Pseudomonadaceae change in percent relative abundance” value (gut microbiome; ip, 50 mg/kg)?
The value was 0.000%.

And the “Rhizobiaceae change in percent relative abundance” value (gut microbiome; ip, 50 mg/kg)?
Its value is 0.000%.

What about the “Rhodobacteraceae change in percent relative abundance” value (gut microbiome; ip, 50 mg/kg) of the same compound?
Its value is 0.000%.

And the “Rikenellaceae change in percent relative abundance” value (gut microbiome; ip, 50 mg/kg)?
Its value is −4.710%.

What about the “Ruminococcaceae change in percent relative abundance” value (gut microbiome; ip, 50 mg/kg) of the same compound?
The value was 1.486%.

What about the “Sphingomonadaceae change in percent relative abundance” value (gut microbiome; ip, 50 mg/kg) of the same compound?
Its value is 0.000%.

What about the “Spirochaetaceae change in percent relative abundance” value (gut microbiome; ip, 50 mg/kg) of the same compound?
Its value is −0.074%.

And the “Spiroplasmataceae change in percent relative abundance” value (gut microbiome; ip, 50 mg/kg)?
The value was −0.107%.

And the “Staphylococcaceae change in percent relative abundance” value (gut microbiome; ip, 50 mg/kg)?
The value was 0.004%.

And the “Streptococcaceae change in percent relative abundance” value (gut microbiome; ip, 50 mg/kg)?
The value was 2.055%.

What about the “Thermoanaerobacteraceae change in percent relative abundance” value (gut microbiome; ip, 50 mg/kg) of the same compound?
Its value is −0.018%.

And the “Veillonellaceae change in percent relative abundance” value (gut microbiome; ip, 50 mg/kg)?
The value was 0.000%.

What about the “Verrucomicrobiaceae change in percent relative abundance” value (gut microbiome; ip, 50 mg/kg) of the same compound?
The value was −0.017%.

And the “Xanthomonadaceae change in percent relative abundance” value (gut microbiome; ip, 50 mg/kg)?
Its value is 0.000%.

What about the “Acholeplasmataceae change in percent relative abundance” value (gut microbiome; po, 50 mg/kg) of the same compound?
Its value is 0.005%.

What about the “Candidatus saccharibacteria change in percent relative abundance” value (gut microbiome; po, 50 mg/kg) of the same compound?
Its value is −0.043%.
